Reference: patent US20230295234A1, “ANTIMICROBIAL PEPTIDOMIMETICS” (SPEXIS AG, priority 2020, published 2023)
Bridge positions count the residues as written; N and C are the ends. Square brackets hold non-standard residues; d marks the D form. Peptide text beside a SMILES is read from it. * marks the point of attachment. Pro(4R-NH2) = N[C@H]1CN[C@H](C(=O)O)C1; Gly(N-2-aminoethyl) = NCCNCC(=O)O; Hyp = O=C(O)[C@@H]1C[C@@H](O)CN1; Gly(N(CH2)3NH2) = NCCCNCC(=O)O; Pen = CC(C)(S)[C@H](N)C(=O)O; dDab = NCC[C@@H](N)C(=O)O; Nle = CCCC[C@H](N)C(=O)O; Dab = NCC[C@H](N)C(=O)O; X3 = NCCN(CCN)CC(=O)*; Nlys = NCCCCNCC(=O)O

Columns and labels:
[1] = test system: Escherichia coli ATCC 25922; settings: ATCC 25922
In short: (§1)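 Activity is measured against peptides serially diluted two-fold in water with 0.002% final Polysorbate 80. The cells are in cation-adjusted MHII broth at roughly 5×10^5 CFU/mL, prepared from a 0.5 McFarland suspension in 0.85% NaCl.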

[2] = test system: Escherichia coli MCR-1 Af 45; settings: MCR-1 Af 45
In short: as §1

[3] = test system: Klebsiella pneumoniae SSI3010; settings: SSI3010
In short: as §1

[4] = test system: human red blood cells (hRBC); test: Hemolysis of human red blood cells; format: cell-based; settings: red cells of human, 1 h
In short: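 PBS-washed human red blood cells (20% v/v) were incubated with peptide at 200 μg/mL for 1 h at 37 °C with shaking. Supernatant OD was read at 540 nm after 8-fold dilution. Hemolysis is expressed as percent of the water control.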

Row | SMILES | Escherichia coli ATCC 25922 MIC [1] [µg/mL] | Escherichia coli MCR-1 Af 45 MIC [2] [µg/mL] | Klebsiella pneumoniae SSI3010 MIC [3] [µg/mL] | Hemolysis at 0.2 g/L [4] [%]
1 | CCCC[C@H](NC(=O)[C@H](CCCNC(=N)N)NC(=O)[C@H](CCC(N)=O)NC(=O)[C@@H]1CSSC(C)(C)[C@H](NC(=O)[C@H](Cc2ccc(O)cc2)NC(=O)[C@@H](NC(=O)[C@@H](NC(=O)[C@@H]2C[C@@H](N)CN2C(=O)[C@@H](NC(=O)CN(CCN)CCN)C(C)C)[C@@H](C)CC)[C@@H](C)CC)C(=O)N[C@@H](CC(N)=O)C(=O)N[C@@H](CCCNC(=N)N)C(=O)N[C@@H](CCN)C(=O)N[C@@H]([C@@H](C)O)C(=O)N[C@H](CCN)C(=O)N[C@@H](CCCCN)C(=O)N1)C(=O)O [Example 40, Bis(2aminoethyl)Gly-Val-Pro((4R)NH2)-Ile-Ile-Tyr-Pen-Asn-Arg-Dab-Thr-DDab-Lys-Cys-Gln-Arg-Nle] (X3-V[Pro(4R-NH2)]IIY[Pen]NR[Dab]T[dDab]KCQR[Nle]-OH; disulfide 6-13) | 0.125 | 0.0625 | 0.25 | 0
2 | CC[C@H](C)[C@H](NC(=O)[C@@H]1C[C@@H](O)CN1C(=O)[C@@H](NC(=O)[C@@H]1C[C@@H](O)CN1C(=O)[C@@H](N)CCCCN)C(C)C)C(=O)N[C@H](C(=O)N[C@@H](Cc1ccc(O)cc1)C(=O)N[C@@H]1C(=O)N[C@@H](CC(N)=O)C(=O)N[C@@H](CCCNC(=N)N)C(=O)N[C@@H](CCN)C(=O)N[C@@H]([C@@H](C)O)C(=O)N[C@H](CCN)C(=O)N[C@@H](CCCCN)C(=O)N[C@H](C(=O)N[C@@H](CCN)C(=O)N[C@@H](CCCNC(=N)N)C(=O)N[C@@H](Cc2ccc(O)cc2)C(=O)O)CSSC1(C)C)[C@@H](C)O [Example 41, Lys-Hyp-Val-Hyp-Ile-Thr-Tyr-Pen-Asn-Arg-Dab-Thr-^DDab-Lys-Cys-Dab-Arg-Tyr] (HELM PEPTIDE1{K.[Hyp].V.[Hyp].I.T.Y.[Pen].N.R.[Dab].T.[NCC[C@@H](N[*:1])C(=O)[*:2]].K.C.[Dab].R.Y}$PEPTIDE1,PEPTIDE1,8:R3-15:R3$$$V2.0) | 0.125 | 0.0625 | 0.25 | 0
3 | CC[C@H](C)[C@H](NC(=O)[C@@H]1C[C@@H](O)CN1C(=O)[C@@H](NC(=O)[C@@H]1C[C@@H](O)CN1C(=O)CNCCCN)C(C)C)C(=O)N[C@H](C(=O)N[C@@H](Cc1ccc(O)cc1)C(=O)N[C@@H]1C(=O)N[C@@H](CC(N)=O)C(=O)N[C@@H](CCCNC(=N)N)C(=O)N[C@@H](CCN)C(=O)N[C@@H]([C@@H](C)O)C(=O)N[C@H](CCN)C(=O)N[C@@H](CCCCN)C(=O)N[C@H](C(=O)N[C@@H](CCN)C(=O)N[C@@H](CCCNC(=N)N)C(=O)N[C@@H](Cc2ccc(O)cc2)C(=O)O)CSSC1(C)C)[C@@H](C)O [Example 42, Norn-Hyp-Val-Hyp-Ile-Thr-Tyr-Pen-Asn-Arg-Dab-Thr-^DDab-Lys-Cys-Dab-Arg-Tyr] (HELM PEPTIDE1{[NCCCNCC(=O)[*:2]].[Hyp].V.[Hyp].I.T.Y.[Pen].N.R.[Dab].T.[NCC[C@@H](N[*:1])C(=O)[*:2]].K.C.[Dab].R.Y}$PEPTIDE1,PEPTIDE1,8:R3-15:R3$$$V2.0) | 0.125 | 0.125 | 0.25 | 0
4 | CC[C@H](C)[C@H](NC(=O)[C@@H]1C[C@@H](N)CN1C(=O)[C@@H](NC(=O)[C@@H]1C[C@@H](O)CN1C(=O)[C@@H](N)CCCCN)C(C)C)C(=O)N[C@H](C(=O)N[C@@H](Cc1ccc(O)cc1)C(=O)N[C@@H]1C(=O)N[C@@H](CC(N)=O)C(=O)N[C@@H](CCCNC(=N)N)C(=O)N[C@@H](CCN)C(=O)N[C@@H]([C@@H](C)O)C(=O)N[C@H](CCN)C(=O)N[C@@H](CCCCN)C(=O)N[C@H](C(=O)N[C@@H](CCN)C(=O)N[C@@H](CCCNC(=N)N)C(=O)N[C@@H](Cc2ccc(O)cc2)C(=O)O)CSSC1(C)C)[C@@H](C)O [Example 43, Lys-Hyp-Val-Pro((4R)NH2)-Ile-Thr-Tyr-Pen-Asn-Arg-Dab-Thr-^DDab-Lys-Cys-Dab-Arg-Tyr] (HELM PEPTIDE1{K.[Hyp].V.[N[C@@H]1C[C@@H](C(=O)[*:2])N([*:1])C1].I.T.Y.[Pen].N.R.[Dab].T.[NCC[C@@H](N[*:1])C(=O)[*:2]].K.C.[Dab].R.Y}$PEPTIDE1,PEPTIDE1,8:R3-15:R3$$$V2.0) | 0.125 | 0.125 | 0.125 | 0
5 | CC[C@H](C)[C@H](NC(=O)[C@@H]1C[C@@H](N)CN1C(=O)[C@@H](NC(=O)[C@@H]1C[C@@H](O)CN1C(=O)CNCCN)C(C)C)C(=O)N[C@H](C(=O)N[C@@H](Cc1ccc(O)cc1)C(=O)N[C@@H]1C(=O)N[C@@H](CC(N)=O)C(=O)N[C@@H](CCCNC(=N)N)C(=O)N[C@@H](CCN)C(=O)N[C@@H]([C@@H](C)O)C(=O)N[C@H](CCN)C(=O)N[C@@H](CCCCN)C(=O)N[C@H](C(=O)N[C@@H](CCN)C(=O)N[C@@H](CCCNC(=N)N)C(=O)N[C@@H](Cc2ccc(O)cc2)C(=O)O)CSSC1(C)C)[C@@H](C)O [Example 44, Ndab-Hyp-Val-Pro((4R)NH2)-Ile-Thr-Tyr-Pen-Asn-Arg-Dab-Thr-^DDab-Lys-Cys-Dab-Arg-Tyr] (H-[Gly(N-2-aminoethyl)][Hyp]V[Pro(4R-NH2)]ITY[Pen]NR[Dab]T[dDab]KC[Dab]RY-OH; disulfide 8-15) | 0.25 | 0.125 | 0.25 | 0
6 | CC[C@H](C)[C@H](NC(=O)[C@@H]1C[C@@H](N)CN1C(=O)[C@@H](NC(=O)[C@@H]1C[C@@H](O)CN1C(=O)CNCCCN)C(C)C)C(=O)N[C@H](C(=O)N[C@@H](Cc1ccc(O)cc1)C(=O)N[C@@H]1C(=O)N[C@@H](CC(N)=O)C(=O)N[C@@H](CCCNC(=N)N)C(=O)N[C@@H](CCN)C(=O)N[C@@H]([C@@H](C)O)C(=O)N[C@H](CCN)C(=O)N[C@@H](CCCCN)C(=O)N[C@H](C(=O)N[C@@H](CCN)C(=O)N[C@@H](CCCNC(=N)N)C(=O)N[C@@H](Cc2ccc(O)cc2)C(=O)O)CSSC1(C)C)[C@@H](C)O [Example 45, Norn-Hyp-Val-Pro((4R)NH2)-Ile-Thr-Tyr-Pen-Asn-Arg-Dab-Thr-^DDab-Lys-Cys-Dab-Arg-Tyr] (H-[Gly(N(CH2)3NH2)][Hyp]V[Pro(4R-NH2)]ITY[Pen]NR[Dab]T[dDab]KC[Dab]RY-OH; disulfide 8-15) | 0.0625 | 0.0625 | 0.125 | 0
7 | CC[C@H](C)[C@H](NC(=O)[C@@H]1C[C@@H](N)CN1C(=O)[C@@H](NC(=O)[C@@H]1C[C@@H](O)CN1C(=O)CNCCCCN)C(C)C)C(=O)N[C@H](C(=O)N[C@@H](Cc1ccc(O)cc1)C(=O)N[C@@H]1C(=O)N[C@@H](CC(N)=O)C(=O)N[C@@H](CCCNC(=N)N)C(=O)N[C@@H](CCN)C(=O)N[C@@H]([C@@H](C)O)C(=O)N[C@H](CCN)C(=O)N[C@@H](CCCCN)C(=O)N[C@H](C(=O)N[C@@H](CCN)C(=O)N[C@@H](CCCNC(=N)N)C(=O)N[C@@H](Cc2ccc(O)cc2)C(=O)O)CSSC1(C)C)[C@@H](C)O [Example 46, Nlys-Hyp-Val-Pro((4R)NH2)-Ile-Thr-Tyr-Pen-Asn-Arg-Dab-Thr-^DDab-Lys-Cys-Dab-Arg-Tyr] (H-[Nlys][Hyp]V[Pro(4R-NH2)]ITY[Pen]NR[Dab]T[dDab]KC[Dab]RY-OH; disulfide 8-15) | ≤0.03125 | ≤0.03125 | 0.125 | 0
8 | CC[C@H](C)[C@H](NC(=O)CN(CCN)C(=O)[C@@H](NC(=O)[C@@H]1C[C@@H](O)CN1C(=O)[C@@H](N)CCCCN)C(C)C)C(=O)N[C@H](C(=O)N[C@@H](Cc1ccc(O)cc1)C(=O)N[C@@H]1C(=O)N[C@@H](CC(N)=O)C(=O)N[C@@H](CCCNC(=N)N)C(=O)N[C@@H](CCN)C(=O)N[C@@H]([C@@H](C)O)C(=O)N[C@H](CCN)C(=O)N[C@@H](CCCCN)C(=O)N[C@H](C(=O)N[C@@H](CCN)C(=O)N[C@@H](CCCNC(=N)N)C(=O)N[C@@H](Cc2ccc(O)cc2)C(=O)O)CSSC1(C)C)[C@@H](C)O [Example 47, Lys-Hyp-Val-Ndab-Ile-Thr-Tyr-Pen-Asn-Arg-Dab-Thr-^DDab-Lys-Cys-Dab-Arg-Tyr] (HELM PEPTIDE1{K.[Hyp].V.[NCCN(CC(=O)[*:2])[*:1]].I.T.Y.[Pen].N.R.[Dab].T.[NCC[C@@H](N[*:1])C(=O)[*:2]].K.C.[Dab].R.Y}$PEPTIDE1,PEPTIDE1,8:R3-15:R3$$$V2.0) | 0.0625 | ≤0.03125 | 0.25 | 0
9 | CC[C@H](C)[C@H](NC(=O)CN(CCN)C(=O)[C@@H](NC(=O)[C@@H]1C[C@@H](O)CN1C(=O)CNCCCN)C(C)C)C(=O)N[C@H](C(=O)N[C@@H](Cc1ccc(O)cc1)C(=O)N[C@@H]1C(=O)N[C@@H](CC(N)=O)C(=O)N[C@@H](CCCNC(=N)N)C(=O)N[C@@H](CCN)C(=O)N[C@@H]([C@@H](C)O)C(=O)N[C@H](CCN)C(=O)N[C@@H](CCCCN)C(=O)N[C@H](C(=O)N[C@@H](CCN)C(=O)N[C@@H](CCCNC(=N)N)C(=O)N[C@@H](Cc2ccc(O)cc2)C(=O)O)CSSC1(C)C)[C@@H](C)O [Example 48, Norn-Hyp-Val-Ndab-Ile-Thr-Tyr-Pen-Asn-Arg-Dab-Thr-^DDab-Lys-Cys-Dab-Arg-Tyr] (H-[Gly(N(CH2)3NH2)][Hyp]V[Gly(N-2-aminoethyl)]ITY[Pen]NR[Dab]T[dDab]KC[Dab]RY-OH; disulfide 8-15; N-terminus and C-terminus assumed) | 0.125 | 0.0625 | 0.25 | 0
